≈ marks a conversion by molar mass, not a printed value.

Here are results for 21 compounds from ChEMBL document CHEMBL3046686, “Isoxazole derivatives as a potential insecticide for managing Callosobruchus chinensis” (2010).

Assay [1] concerns Callosobruchus chinensis. The assay can be described thus: Insecticidal activity against Callosobruchus chinensis assessed as mortality at 1000 mg/l at 27 +/- 1 degC and 70% RH. The class given is functional.
Assay [2] relates to Callosobruchus chinensis. Kind of assay: Insecticidal activity against Callosobruchus chinensis assessed as mortality at 27 +/- 1 degC and 70% RH. The class given is functional.

For orientation: mortality means the percentage killed. In the case of `Clc1ccc(-c2cc(-c3ccccc3)on2)cc1`, the mortality at 1000 µg/mL in the assay on Callosobruchus chinensis [1] was 65%.

As to `COc1ccc(-c2cc(-c3ccccc3)no2)cc1`, the mortality at 1000 µg/mL in the assay on Callosobruchus chinensis [1] was 66%.

For `Cc1ccc(-c2cc(-c3ccccc3)no2)cc1`, the mortality at 1000 µg/mL in the assay with Callosobruchus chinensis [1] worked out at 65%.

As a reminder, the LC50 is the concentration lethal to half of the exposed cells or organisms. `COc1ccc(-c2cc(-c3ccc(Cl)cc3)on2)cc1`: the LC50 in the assay on Callosobruchus chinensis [2] was determined as 330 µg/mL (≈ 1150 µM). The mortality at 1000 µg/mL in the assay on Callosobruchus chinensis [1] was found to be 85%.

On to `Fc1ccc(-c2cc(-c3ccccc3)on2)cc1`, for which the LC50 with Callosobruchus chinensis [2] came to 254 µg/mL (≈ 1060 µM). For the same compound, the mortality at 1000 µg/mL with Callosobruchus chinensis [1] was 86%.

Take `Fc1ccc(-c2cc(-c3ccc(Cl)cc3)on2)cc1`: the mortality at 1000 µg/mL in the assay with Callosobruchus chinensis [1] was 59%.

As for `Cc1ccc(-c2cc(-c3ccc(F)cc3)no2)cc1`, in the assay on Callosobruchus chinensis [1], the mortality at 1000 µg/mL came to 67%.

With `COc1ccc(-c2cc(-c3ccc(F)cc3)no2)cc1`, in the assay on Callosobruchus chinensis [2], the LC50 was 289 µg/mL (≈ 1070 µM). Besides, the mortality at 1000 µg/mL in the assay on Callosobruchus chinensis [1] came out at 88%.

In the case of `Clc1ccc(-c2cc(-c3ccc(Cl)cc3)on2)cc1`, the 50% lethal concentration (LC50) with Callosobruchus chinensis [2] worked out at 134 µg/mL (≈ 462 µM). Further, the mortality at 1000 µg/mL with Callosobruchus chinensis [1] was 90%.

Regarding `Cc1ccc(-c2cc(-c3ccc(Cl)cc3)no2)cc1`, the mortality at 1000 µg/mL with Callosobruchus chinensis [1] turned out to be 63%.

As to `COc1ccc(-c2cc(-c3ccc(Cl)cc3)no2)cc1`, the LC50 in the assay on Callosobruchus chinensis [2] turned out to be 354 µg/mL (≈ 1240 µM). Also, the mortality at 1000 µg/mL in the assay with Callosobruchus chinensis [1] was 82%.

For `Clc1ccccc1-c1cc(-c2ccccc2)on1`, the LC50 in the assay on Callosobruchus chinensis [2] is 36 µg/mL (≈ 141 µM). The mortality at 1000 µg/mL in the assay with Callosobruchus chinensis [1] worked out at 78%.

Turning to `Clc1ccc(-c2cc(-c3ccccc3Cl)no2)cc1`, in the assay on Callosobruchus chinensis [2], the LC50 was 338 µg/mL (≈ 1160 µM). In the assay on Callosobruchus chinensis [1], the mortality at 1000 µg/mL was found to be 85%.

As to `Cc1ccc(-c2cc(-c3ccccc3Cl)no2)cc1`, the mortality at 1000 µg/mL with Callosobruchus chinensis [1] came out at 68%.

With `COc1ccc(-c2cc(-c3ccccc3Cl)no2)cc1`, in the assay with Callosobruchus chinensis [2], the LC50 is 110 µg/mL (≈ 385 µM). The mortality at 1000 µg/mL in the assay with Callosobruchus chinensis [1] stood at 86%.

For the compound `COc1ccc(-c2cc(-c3ccccc3)on2)cc1`, in the assay on Callosobruchus chinensis [1], the mortality at 1000 µg/mL was 58%.

On to `COc1ccc(-c2cc(-c3ccc(C)cc3)on2)cc1`, for which the LC50 in the assay with Callosobruchus chinensis [2] came out at 93 µg/mL (≈ 351 µM). Further, in the assay on Callosobruchus chinensis [1], the mortality at 1000 µg/mL came out at 84%.

Take `COc1ccc(-c2cc(-c3ccc(OC)cc3)on2)cc1`: the LC50 with Callosobruchus chinensis [2] is 296 µg/mL (≈ 1050 µM). For the same compound, the mortality at 1000 µg/mL in the assay with Callosobruchus chinensis [1] came out at 89%.

Turning to `Clc1ccc(-c2cc(-c3ccccc3)no2)cc1`, the mortality at 1000 µg/mL in the assay on Callosobruchus chinensis [1] turned out to be 46%.

Turning to `c1ccc(-c2cc(-c3ccccc3)on2)cc1` [3,5-DIPHENYLISOXAZOLE], the mortality at 1000 µg/mL in the assay on Callosobruchus chinensis [1] came to 67%.

Consider `COP(=O)(OC)OC=C(Cl)Cl` [DICHLORVOS], for which the LC50 in the assay with Callosobruchus chinensis [2] came to 155 µg/mL (≈ 701 µM).
